Laboratory results published in PubChem BioAssay AID2060884 (Molecular Pharmacology Branch, DTP, NCI, 2025).

Tested on: NCI-H929 complex spheroids, viability % test/control
Assay: Anticancer human tumor NCI-H929 cell line growth inhibition [RAS];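 note: compound exposure lasted seven days before viability was read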;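 for viability, T/C: 100% = DMSO vehicle control viability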
Details: for IC50: curve of first compound; for viability, T/C: stronger effect = lower value
Method in brief: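 Agents were tested in combination matrices in half-log decrements from a top concentration at or near clinical Cmax (10 microM if undetermined). Targets were multi-cell spheroids of tumour lines plus HUVEC and MSC stromal cells.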

[1] = second compound 0.00316 µM, first compound 0.000949 µM
[2] = second compound 0.00316 µM, first compound 0.003 µM
[3] = second compound 0.00316 µM, first compound 0.00949 µM
[4] = second compound 0.00316 µM, first compound 0.03 µM
[5] = second compound 0.00316 µM, first compound 0.0949 µM
[6] = second compound 0.00316 µM, first compound 0.3 µM
[7] = second compound 0.01 µM, first compound 0.000949 µM
[8] = second compound 0.01 µM, first compound 0.003 µM
[9] = second compound 0.01 µM, first compound 0.00949 µM
[10] = second compound 0.01 µM, first compound 0.03 µM
[11] = second compound 0.01 µM, first compound 0.0949 µM
[12] = second compound 0.01 µM, first compound 0.3 µM
[13] = second compound 0.0316 µM, first compound 0.000949 µM
[14] = second compound 0.0316 µM, first compound 0.003 µM
[15] = second compound 0.0316 µM, first compound 0.00949 µM
[16] = second compound 0.0316 µM, first compound 0.03 µM
[17] = second compound 0.0316 µM, first compound 0.0949 µM
[18] = second compound 0.0316 µM, first compound 0.3 µM
[19] = second compound 0.1 µM, first compound 0.000949 µM
[20] = second compound 0.1 µM, first compound 0.003 µM
[21] = second compound 0.1 µM, first compound 0.00949 µM
[22] = second compound 0.1 µM, first compound 0.03 µM
[23] = second compound 0.1 µM, first compound 0.0949 µM
[24] = second compound 0.1 µM, first compound 0.3 µM
[25] = second compound 0.316 µM, first compound 0.000949 µM
[26] = second compound 0.316 µM, first compound 0.003 µM
[27] = second compound 0.316 µM, first compound 0.00949 µM
[28] = second compound 0.316 µM, first compound 0.03 µM
[29] = second compound 0.316 µM, first compound 0.0949 µM
[30] = second compound 0.316 µM, first compound 0.3 µM
[31] = second compound 1 µM, first compound 0.000949 µM
[32] = second compound 1 µM, first compound 0.003 µM
[33] = second compound 1 µM, first compound 0.00949 µM
[34] = second compound 1 µM, first compound 0.03 µM
[35] = second compound 1 µM, first compound 0.0949 µM
[36] = second compound 1 µM, first compound 0.3 µM

In the case of `CC(=O)OC12COC1CC(O)C1(C)C(=O)C(O)C3=C(C)C(OC(=O)C(O)C(NC(=O)OC(C)(C)C)c4ccccc4)CC(O)(C(OC(=O)c4ccccc4)C21)C3(C)C` (stereo unspecified) + C=CC(=O)N1CCN(c2nc(OCC3CCCN3C)nc3c(F)c(-c4nc(N)cc(C)c4C(F)(F)F)c(Cl)cc23)C(C)C1, the IC50 (second compound 0.00316 µM) is reported as < 31.6 nM, the IC50 (second compound 0.01 µM) is reported as < 31.6 nM and the IC50 (second compound 0.0316 µM) is reported as < 31.6 nM. For the same compound, the IC50 (second compound 0.1 µM) was < 31.6 nM, the IC50 (second compound 0.316 µM) was < 31.6 nM and the IC50 (second compound 1 µM) was < 31.6 nM. For the same compound, the viability, T/C (second compound 0.00316 µM, first compound 0.0316 µM) was 0.81%, the viability, T/C (second compound 0.00316 µM, first compound 0.1 µM) was 0.73% and the viability, T/C (second compound 0.00316 µM, first compound 0.316 µM) was 1.35%. The viability, T/C (second compound 0.00316 µM, first compound 1 µM) was 2.03%, the viability, T/C (second compound 0.00316 µM, first compound 3.16 µM) was 1.42% and the viability, T/C (second compound 0.00316 µM, first compound 10 µM) was 1.11%. It also gave a viability, T/C (second compound 0.01 µM, first compound 0.0316 µM) of 1.77%, a viability, T/C (second compound 0.01 µM, first compound 0.1 µM) of 0.94% and a viability, T/C (second compound 0.01 µM, first compound 0.316 µM) of 1.67%. For the same compound, the viability, T/C (second compound 0.01 µM, first compound 1 µM) was 1.93%, the viability, T/C (second compound 0.01 µM, first compound 3.16 µM) was 1.54% and the viability, T/C (second compound 0.01 µM, first compound 10 µM) was 1.19%. It also gave a viability, T/C (second compound 0.0316 µM, first compound 0.0316 µM) of 1.41%, a viability, T/C (second compound 0.0316 µM, first compound 0.1 µM) of 1.13% and a viability, T/C (second compound 0.0316 µM, first compound 0.316 µM) of 1.31%. It also gave a viability, T/C (second compound 0.0316 µM, first compound 1 µM) of 1.79%, a viability, T/C (second compound 0.0316 µM, first compound 3.16 µM) of 1.72% and a viability, T/C (second compound 0.0316 µM, first compound 10 µM) of 0.97%. It also gave a viability, T/C (second compound 0.1 µM, first compound 0.0316 µM) of 2.46%, a viability, T/C (second compound 0.1 µM, first compound 0.1 µM) of 1.76% and a viability, T/C (second compound 0.1 µM, first compound 0.316 µM) of 0.8%. It also gave a viability, T/C (second compound 0.1 µM, first compound 1 µM) of 2.06%, a viability, T/C (second compound 0.1 µM, first compound 3.16 µM) of 1.88% and a viability, T/C (second compound 0.1 µM, first compound 10 µM) of 1.11%. For the same compound, the viability, T/C (second compound 0.316 µM, first compound 0.0316 µM) was 0.97%, the viability, T/C (second compound 0.316 µM, first compound 0.1 µM) was 1.22% and the viability, T/C (second compound 0.316 µM, first compound 0.316 µM) was 0.89%. It also gave a viability, T/C (second compound 0.316 µM, first compound 1 µM) of 2.24%, a viability, T/C (second compound 0.316 µM, first compound 3.16 µM) of 1.05% and a viability, T/C (second compound 0.316 µM, first compound 10 µM) of 1.06%. It also gave a viability, T/C (second compound 1 µM, first compound 0.0316 µM) of 2.41%, a viability, T/C (second compound 1 µM, first compound 0.1 µM) of 1.89% and a viability, T/C (second compound 1 µM, first compound 0.316 µM) of 1.45%. For the same compound, the viability, T/C (second compound 1 µM, first compound 1 µM) was 0.87%, the viability, T/C (second compound 1 µM, first compound 3.16 µM) was 1.43% and the viability, T/C (second compound 1 µM, first compound 10 µM) was 1.17%.

Work on `CC1(C)CCC(Nc2ncc(C(F)(F)F)c(-c3c[nH]c4c(P(C)(C)=O)c(C#N)ccc34)n2)CN1` (stereo unspecified) + C=CC(=O)N1CCN(c2nc(OCC3CCCN3C)nc3c(F)c(-c4nc(N)cc(C)c4C(F)(F)F)c(Cl)cc23)C(C)C1 yielded an IC50 (second compound 0.00316 µM) of 5.68 nM, an IC50 (second compound 0.01 µM) of 6.25 nM and an IC50 (second compound 0.0316 µM) of 6.33 nM. For the same compound, the IC50 (second compound 0.1 µM) was 6.39 nM, the IC50 (second compound 0.316 µM) was 6.5 nM and the IC50 (second compound 1 µM) was 6.68 nM. For the same compound, the viability, T/C [1] was 128%, the viability, T/C [2] was 92.7% and the viability, T/C [3] was 15.7%. For the same compound, the viability, T/C [4] was 9.6%, the viability, T/C [5] was 8.73% and the viability, T/C [6] was 5.5%. For the same compound, the viability, T/C [7] was 125%, the viability, T/C [8] was 109% and the viability, T/C [9] was 16.1%. For the same compound, the viability, T/C [10] was 12.3%, the viability, T/C [11] was 9.77% and the viability, T/C [12] was 5.17%. For the same compound, the viability, T/C [13] was 125%, the viability, T/C [14] was 111% and the viability, T/C [15] was 16.7%. For the same compound, the viability, T/C [16] was 11.4%, the viability, T/C [17] was 7.81% and the viability, T/C [18] was 5.16%. It also gave a viability, T/C [19] of 123%, a viability, T/C [20] of 114% and a viability, T/C [21] of 16.6%. The viability, T/C [22] was 11.9%, the viability, T/C [23] was 7.35% and the viability, T/C [24] was 5.2%. For the same compound, the viability, T/C [25] was 129%, the viability, T/C [26] was 114% and the viability, T/C [27] was 18.5%. The viability, T/C [28] was 9.66%, the viability, T/C [29] was 8.16% and the viability, T/C [30] was 5.67%. For the same compound, the viability, T/C [31] was 132%, the viability, T/C [32] was 125% and the viability, T/C [33] was 17%. The viability, T/C [34] was 13.4%, the viability, T/C [35] was 9.36% and the viability, T/C [36] was 6.92%.

With `CCc1c2c(nc3ccc(O)cc13)-c1cc3c(c(=O)n1C2)COC(=O)[C@]3(O)CC` + C=CC(=O)N1CCN(c2nc(OCC3CCCN3C)nc3c(F)c(-c4nc(N)cc(C)c4C(F)(F)F)c(Cl)cc23)C(C)C1 the IC50 (second compound 0.00316 µM) was 1.85 nM, the IC50 (second compound 0.01 µM) was 1.94 nM and the IC50 (second compound 0.0316 µM) was 1.99 nM. For the same compound, the IC50 (second compound 0.1 µM) was 1.99 nM, the IC50 (second compound 0.316 µM) was 2.03 nM and the IC50 (second compound 1 µM) was 1.94 nM. It also gave a viability, T/C [1] of 106%, a viability, T/C [2] of 9.93% and a viability, T/C [3] of 1.39%. For the same compound, the viability, T/C [4] was 1.87%, the viability, T/C [5] was 2.37% and the viability, T/C [6] was 1.53%. The viability, T/C [7] was 101%, the viability, T/C [8] was 18.9% and the viability, T/C [9] was 2.06%. It also gave a viability, T/C [10] of 3.03%, a viability, T/C [11] of 2.18% and a viability, T/C [12] of 1.15%. For the same compound, the viability, T/C [13] was 103%, the viability, T/C [14] was 20.9% and the viability, T/C [15] was 1.84%. It also gave a viability, T/C [16] of 2.69%, a viability, T/C [17] of 2.18% and a viability, T/C [18] of 0.6%. It also gave a viability, T/C [19] of 104%, a viability, T/C [20] of 19.8% and a viability, T/C [21] of 1.52%. It also gave a viability, T/C [22] of 1.4%, a viability, T/C [23] of 1.53% and a viability, T/C [24] of 0.65%. It also gave a viability, T/C [25] of 107%, a viability, T/C [26] of 20.4% and a viability, T/C [27] of 1.92%. The viability, T/C [28] was 2.44%, the viability, T/C [29] was 1.37% and the viability, T/C [30] was 0.74%. It also gave a viability, T/C [31] of 116%, a viability, T/C [32] of 9.86% and a viability, T/C [33] of 2.04%. The viability, T/C [34] was 2.87%, the viability, T/C [35] was 1.52% and the viability, T/C [36] was 0.6%.
